The record followed here is PubChem BioAssay AID1259411 (Chemical Carcinogenesis Research Information System (CCRIS), 2018).

This series deals with rodent carcinogenicity bioassays, tumor incidence. Nature of the series: CCRIS carcinogenicity studies. Put shortly: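 NCI-built, expert-reviewed records of carcinogenicity and related test outcomes (mutagenicity, tumor promotion/inhibition) compiled from published and report sources, historical span 1985-2011, not updated.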

Structures are written as SMILES. Calls of active or inactive are those of the source. The rule behind the calls is not given here.

`Oc1ccccc1O`: the carcinogen call was “active; positive” (Species: MOUSE, Strain/Sex: B6C3F1/FEMALE, Route: ORAL, Dose: 0, 0.8% IN DIET FOR 96 WK (STUDY DURATION: 96 WK), Tumor Site: Type of Lesion: GLANDULAR STOMACH: ADENOMA); “inactive; negative” (Species: MOUSE, Strain/Sex: B6C3F1/FEMALE, Route: ORAL, Dose: 0, 0.8% IN POWDERED BASAL DIET FOR 96 WK (STUDY DURATION: 96 WK)); “active; positive” (Species: MOUSE, Strain/Sex: B6C3F1/MALE, Route: ORAL, Dose: 0, 0.8% IN DIET FOR 96 WK (STUDY DURATION: 96 WK), Tumor Site: Type of Lesion: GLANDULAR STOMACH: ADENOMA); “inactive; negative” (Species: MOUSE, Strain/Sex: B6C3F1/MALE, Route: ORAL, Dose: 0, 0.8% IN POWDERED BASAL DIET FOR 96 WK (STUDY DURATION: 96 WK)); “active; positive” (Species: RAT, Strain/Sex: F344/FEMALE, Route: ORAL, Dose: 0, 0.8% IN DIET FOR 104 WK (STUDY DURATION: 104 WK), Tumor Site: Type of Lesion: GLANDULAR STOMACH: ADENOMA, ADENOCARCINOMA); “active; positive” (Species: RAT, Strain/Sex: F344/FEMALE, Route: ORAL, Dose: 0, 0.8% IN POWDERED BASAL DIET FOR 104 WK (STUDY DURATION: 104 WK), Tumor Site: Type of Lesion: GLANDULAR STOMACH: ADENOCARCINOMA). Besides, the carcinogen call was “active; positive” (Species: RAT, Strain/Sex: F344/FEMALE, Route: ORAL, Dose: 0, 2% IN DIET FOR 104 WK (STUDY DURATION: 104 WK), Tumor Site: Type of Lesion: GLANDULAR STOMACH: ADENOCARCINOMA); “active; positive” (Species: RAT, Strain/Sex: F344/MALE, Route: ORAL, Dose: 0, 0.1, 0.2, 0.4, 0.8% IN DIET FOR 104 WK (STUDY DURATION: 104 WK), Dose: 0, 0.1, 0.2, 0.4, 0.8% IN DIET FOR 104 WK (STUDY DURATION: 104 WK), Tumor Site: Type of Lesion: GLANDULAR STOMACH: ADENOMA, PANCREAS: ACINAR CELL ADENOMA); “active; positive” (Species: RAT, Strain/Sex: F344/MALE, Route: ORAL, Dose: 0, 0.16% IN DIET FOR DURATION OF STUDY (STUDY DURATION: 104 WK), Tumor Site: Type of Lesion: GLANDULAR STOMACH: ADENOMA); “active; positive” (Species: RAT, Strain/Sex: F344/MALE, Route: ORAL, Dose: 0, 0.8% IN DIET FOR 12, 24, 48, 72, OR 96 WK FOLLOWED BY BASAL DIET FOR 84, 72, 48, 24, AND 0 WK RESPECTIVELY (STUDY DUR, Tumor Site: Type of Lesion: STOMACH: ADENOMA, ADENOCARCINOMA); “active; positive” (Species: RAT, Strain/Sex: F344/MALE, Route: ORAL, Dose: 0, 0.8% IN DIET FOR 104 WK (STUDY DURATION: 104 WK), Tumor Site: Type of Lesion: GLANDULAR STOMACH: ADENOMA, ADENOCARCINOMA); “active; positive” (Species: RAT, Strain/Sex: F344/MALE, Route: ORAL, Dose: 0, 0.8% IN POWDERED BASAL DIET FOR 104 WK (STUDY DURATION: 104 WK), Tumor Site: Type of Lesion: GLANDULAR STOMACH: ADENOCARCINOMA). Besides, the carcinogen call is “active; positive” (Species: RAT, Strain/Sex: F344/MALE, Route: ORAL, Dose: 0, 2% IN DIET FOR 104 WK (STUDY DURATION: 104 WK), Tumor Site: Type of Lesion: GLANDULAR STOMACH: ADENOCARCINOMA); “active; positive” (Species: RAT, Strain/Sex: LEWIS/MALE, Route: ORAL, Dose: 0, 0.8% IN DIET FOR 104 WK (STUDY DURATION: 104 WK), Tumor Site: Type of Lesion: GLANDULAR STOMACH: ADENOMA, ADENOCARCINOMA); “active; positive” (Species: RAT, Strain/Sex: SPRAGUE-DAWLEY/MALE, Route: ORAL, Dose: 0, 0.8% IN DIET FOR 104 WK (STUDY DURATION: 104 WK), Tumor Site: Type of Lesion: GLANDULAR STOMACH: ADENOMA, ADENOCARCINOMA, FORESTOMACH: PAPILLOMA); “active; positive” (Species: RAT, Strain/Sex: WISTAR/MALE, Route: ORAL, Dose: 0, 0.8% IN DIET FOR 104 WK (STUDY DURATION: 104 WK), Tumor Site: Type of Lesion: GLANDULAR STOMACH: ADENOMA, ADENOCARCINOMA); “active; positive” (Species: RAT, Strain/Sex: WKY/MALE, Route: ORAL, Dose: 0, 0.8% IN DIET FOR 104 WK (STUDY DURATION: 104 WK), Tumor Site: Type of Lesion: GLANDULAR STOMACH: ADENOMA).

`Cc1cc(-c2ccc(N/N=C3/C(=O)c4c(N)cc(S(=O)(=O)O)cc4C=C3S(=O)(=O)O)c(C)c2)ccc1N/N=C1/C(=O)c2c(N)cc(S(=O)(=O)O)cc2C=C1S(=O)(=O)O`: the carcinogen call (Species: RAT, Route: INTRAPERITONEAL, SUBCUTANEOUS, Tumor Site: Type of Lesion: LIVER, INJECTION SITE) was “active; positive”.

For the compound `CC(O)CN(CC(C)O)N=O` (stereo not given), the carcinogen call reads like this: (Species: HAMSTER, Strain/Sex: SYRIAN/MALE,FEMALE, Route: SUBCUTANEOUS, Dose: 40 MG/KG IN SALINE ONCE, Tumor Site: Type of Lesion: PANCREAS: ADENOMA, ADENOCARCINOMA, INTRADUCTAL CARCINOMA) “active; positive”; (Species: HAMSTER, Strain/Sex: SYRIAN/MALE, Route: SUBCUTANEOUS, Dose: 25, 125, 250 MG/KG 1/WK FOR LIFE, Dose: 25, 125, 250 MG/KG 1/WK FOR LIFE, Tumor Site: Type of Lesion: PANCREAS, NASAL CAVITY, LUNG, LIVER, TRACHEA, LARYNX, Tumor Site: Type of Lesion: PANCREAS, NASAL CAVITY, LUNG, LIVER, TRACHEA, LARYNX) “active; positive”; (Species: HAMSTER, Strain/Sex: SYRIAN/MALE, Route: SUBCUTANEOUS, Dose: 250, 500, 1000 MG/KG IN OLIVE OIL 1/WK FOR 20 WK, Dose: 250, 500, 1000 MG/KG IN OLIVE OIL 1/WK FOR 20 WK, Tumor Site: Type of Lesion: PANCREAS: ADENOCARCINOMA) “active; positive”; (Species: HAMSTER, Strain/Sex: SYRIAN/MALE, Route: SUBCUTANEOUS, Dose: 250 MG/KG IN OLIVE OIL 1/WK FOR 25 WK, Tumor Site: Type of Lesion: PANCREAS: ADENOCARCINOMA) “active; positive”; (Species: MOUSE, Strain/Sex: ICR/FEMALE, Route: SUBCUTANEOUS, Dose: 0, 25, 50, 100 MG/KG BW ONCE ON DAYS 1 AND 8 OF AGE (STUDY DURATION: 50 WK), Dose: 0, 25, 50, 100 MG/KG BW ONCE ON DAYS 1 AND 8 OF AGE (STUDY DURATION: 50 WK), Tumor Site: Type of Lesion: LUNG: TUMOR, LIVER: TUMOR) “active; positive”; (Species: MOUSE, Strain/Sex: ICR/MALE, Route: SUBCUTANEOUS, Dose: 0, 25, 50, 100 MG/KG BW ONCE ON DAYS 1 AND 8 OF AGE (STUDY DURATION: 50 WK), Dose: 0, 25, 50, 100 MG/KG BW ONCE ON DAYS 1 AND 8 OF AGE (STUDY DURATION: 50 WK), Tumor Site: Type of Lesion: LUNG: TUMOR, LIVER: TUMOR) “active; positive”. Further, the carcinogen call reads like this: (Species: MOUSE, Strain/Sex: STRAIN-DD/MALE, Route: ORAL, Dose: 100, 250, 500, 1000 PPM IN DRINKING WATER (DAILY INTAKE: 6.3-34.2 MG), Dose: 100, 250, 500, 1000 PPM IN DRINKING WATER (DAILY INTAKE: 6.3-34.2 MG), Tumor Site: Type of Lesion: LUNG: ADENOMA, ADENOCARCINOMA, LIVER: HEMANGIOMA, HEMANGIOENDOTHELIOMA, HEMANGIOENDOTHELIAL SARCOMA) “active; positive”; (Species: RAT, Strain/Sex: SPRAGUE-DAWLEY/FEMALE, Route: ORAL, Dose: 106 MG/L IN DRINKING WATER 5 DAY/WK FOR 30 WK (TOTAL DOSE: 318 MG), Tumor Site: Type of Lesion: LIVER: HEPATOCELLULAR CARCINOMA, CHOLANGIOCARCINOMA, HEMANGIOENDOTHELIAL SARCOMA) “active; positive”; (Species: RAT, Strain/Sex: SPRAGUE-DAWLEY/FEMALE, Route: ORAL, Dose: 108 MG/L IN DRINKING WATER 5 DAY/WK FOR 50 WK (TOTAL DOSE 540 MG), Tumor Site: Type of Lesion: NASAL TURBINATES: ADENOCARCINOMA, SQUAMOUS CELL CARCINOMA) “active; positive”; (Species: RAT, Strain/Sex: WISTAR/MALE, Route: INTRAPERITONEAL, Dose: 3, 4 G/KG ONCE, Tumor Site: Type of Lesion: LUNG: ADENOMA, ADENOCARCINOMA) “active; positive”; (Species: RAT, Strain/Sex: WISTAR/MALE, Route: ORAL, Dose: 100, 500 PPM IN DRINKING WATER FOR 25 WK, Tumor Site: Type of Lesion: LUNG: ADENOMA, ADENOCARCINOMA, SQUAMOUS CELL CARCINOMA) “active; positive”; (Species: RAT, Strain/Sex: WISTAR/MALE, Route: ORAL, Dose: 100, 500 PPM IN DRINKING WATER FOR 52 WK, Tumor Site: Type of Lesion: LUNG: ADENOMA, ADENOCARCINOMA, SQUAMOUS CELL CARCINOMA, LIVER: HEMANGIOMA, HEPATOCELLULAR CARCINOMA) “active; positive”.
